# Assay results taken from ChEMBL document CHEMBL1136662, “Synthesis and properties of 11-(3,5-di-tert-butyl-2-hydroxyphenylcarbamoyl)undecanoic acid, a new amphiphilic antioxidant” (Bioorg Med Chem Lett, 2003).
# Assay: Hydrophobicity was determined
# Assay type: ADME
row,SMILES,k'
1,CCCCCCCCCCCCCC(=O)Nc1cc(C(C)(C)C)cc(C(C)(C)C)c1O,25.2
2,COCCCCCCCCCCCC(=O)Nc1cc(C(C)(C)C)cc(C(C)(C)C)c1O,6.39
3,CCCCCCCCCCCC(=O)Nc1cc(C(C)(C)C)cc(C(C)(C)C)c1O,12.6

# More lines, now with the values ahead:
row,k',SMILES
1,0.38,CC(C)(C)c1cc(NC(=O)CCCCCCCCC(=O)O)c(O)c(C(C)(C)C)c1
2,7.13,CCCCCCCCCC(=O)Nc1cc(C(C)(C)C)cc(C(C)(C)C)c1O
